Results: patent US20100273814A1, “((PHENYL)IMIDAZOLYL)METHYLHETEROARYL COMPOUNDS” (priority 2007, published 2010)
Where two headings read alike, the source gives them in different places.

Experiments:
Format in all cases: cell-based
alpha2B receptor = target: T1, alpha2B receptor (Homo sapiens, UniProt P18089); assay: Receptor Selection and Amplification Technology (RSAT) assay, alpha2B; conditions: for Alpha 2B intrinsic activity (efficacy): ratio of maximal effect to that of standard full agonist brimonidine (UK14304), value in brackets
T1 construct: expressed in transfected cells; host or cells: NIH-3T3 cells
T1 sequence (P18089 1-450): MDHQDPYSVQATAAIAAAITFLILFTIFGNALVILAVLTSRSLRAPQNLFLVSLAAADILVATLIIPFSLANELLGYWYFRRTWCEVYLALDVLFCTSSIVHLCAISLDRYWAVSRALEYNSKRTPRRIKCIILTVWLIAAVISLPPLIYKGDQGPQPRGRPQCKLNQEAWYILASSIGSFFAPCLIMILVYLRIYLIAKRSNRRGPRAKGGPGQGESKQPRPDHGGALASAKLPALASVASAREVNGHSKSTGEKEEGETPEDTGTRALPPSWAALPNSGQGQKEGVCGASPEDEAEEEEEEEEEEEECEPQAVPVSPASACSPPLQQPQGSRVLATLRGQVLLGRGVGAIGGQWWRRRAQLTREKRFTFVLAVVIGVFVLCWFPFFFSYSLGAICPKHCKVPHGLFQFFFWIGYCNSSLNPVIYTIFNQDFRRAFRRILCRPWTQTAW
Protocol: (§1) Receptor Selection and Amplification Technology (RSAT) Assay
(§2) The RSAT assay measures a receptor-mediated loss of contact inhibition that results in selective proliferation of receptor-containing cells in a mixed population of confluent cells. The increase in cell number is assessed with an appropriate transfected marker gene such as β-galactosidase, the activity of which can be easily measured in a 96-well format. Receptors that activate the G protein, Gq, elicit this response. Alpha2 receptors, which normally couple to Gi, activate the RSAT response when coexpressed with a hybrid Gq protein that has a Gi receptor recognition domain, called Gq/i5.
(§3) NIH-3T3 cells are plated at a density of 2×10^6 cells in 15 cm dishes and maintained in Dulbecco's modified Eagle's medium supplemented with 10% calf serum. One day later, cells are cotransfected by calcium phosphate precipitation with mammalian expression plasmids encoding p-SV-β-galactosidase (5-10 μg), receptor (1-2 μg) and G protein (1-2 μg). 40 μg salmon sperm DNA may also be included in the transfection mixture. Fresh media is added on the following day and 1-2 days later, cells are harvested and frozen in 50 assay aliquots. Cells are thawed and […] added to 100 aliquots of various concentrations of drugs in triplicate in 96-well dishes. Incubations continue 72-96 hr at 37° C. After washing with phosphate-buffered saline, β-galactosidase enzyme activity is determined by adding 200 μl of the chromogenic substrate (consisting of 3.5 mM o-nitrophenyl-β-D-galactopyranoside and 0.5% nonidet P-40 in phosphate buffered saline), incubating overnight at 30° C. and measuring optical density at 420 nm. The absorbance is a measure of enzyme activity, which depends on cell number and reflects a receptor-mediated cell proliferation. The efficacy or intrinsic activity is calculated as a ratio of the maximal effect of the drug to the maximal effect of a standard full agonist for each receptor subtype. Brimonidine, also called UK14304, the chemical structure of which is shown below, is used as the standard agonist for the alpha2A, alpha2B and alpha2C receptors. The EC50 is the concentration at which the drug effect is half of its maximal effect.
(§4) EC50 values are nanomolar. ND stands for “not determinable” at concentrations less than 10 micromolar. IA stands for “intrinsic activity.”

alpha2C receptor = target: T2, alpha2C receptor (Homo sapiens, UniProt P18825); assay: Receptor Selection and Amplification Technology (RSAT) assay, alpha2C; conditions: for Alpha 2C intrinsic activity (efficacy): ratio of maximal effect to that of standard full agonist brimonidine (UK14304), value in brackets
T2 construct: expressed in transfected cells; host or cells: NIH-3T3 cells
T2 sequence (P18825 1-462): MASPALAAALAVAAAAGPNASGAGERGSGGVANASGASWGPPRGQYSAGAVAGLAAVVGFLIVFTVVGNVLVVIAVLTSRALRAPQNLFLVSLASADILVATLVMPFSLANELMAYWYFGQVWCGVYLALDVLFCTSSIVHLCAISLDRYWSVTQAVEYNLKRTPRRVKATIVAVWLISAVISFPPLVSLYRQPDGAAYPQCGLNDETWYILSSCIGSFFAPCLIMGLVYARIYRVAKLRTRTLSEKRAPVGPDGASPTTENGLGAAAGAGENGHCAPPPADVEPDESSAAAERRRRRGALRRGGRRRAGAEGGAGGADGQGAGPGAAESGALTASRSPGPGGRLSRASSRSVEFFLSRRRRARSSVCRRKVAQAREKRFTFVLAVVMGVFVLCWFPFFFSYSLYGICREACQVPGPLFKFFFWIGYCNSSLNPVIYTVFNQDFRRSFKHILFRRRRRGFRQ
Protocol: as §1, §2, §3, §4

alpha2A receptor = target: T3, alpha2A receptor (Homo sapiens, UniProt P08913); assay: Receptor Selection and Amplification Technology (RSAT) assay, alpha2A; conditions: for Alpha 2A intrinsic activity (efficacy): ratio of maximal effect to that of standard full agonist brimonidine (UK14304), value in brackets
T3 construct: expressed in transfected cells; host or cells: NIH-3T3 cells
T3 sequence (P08913 1-465): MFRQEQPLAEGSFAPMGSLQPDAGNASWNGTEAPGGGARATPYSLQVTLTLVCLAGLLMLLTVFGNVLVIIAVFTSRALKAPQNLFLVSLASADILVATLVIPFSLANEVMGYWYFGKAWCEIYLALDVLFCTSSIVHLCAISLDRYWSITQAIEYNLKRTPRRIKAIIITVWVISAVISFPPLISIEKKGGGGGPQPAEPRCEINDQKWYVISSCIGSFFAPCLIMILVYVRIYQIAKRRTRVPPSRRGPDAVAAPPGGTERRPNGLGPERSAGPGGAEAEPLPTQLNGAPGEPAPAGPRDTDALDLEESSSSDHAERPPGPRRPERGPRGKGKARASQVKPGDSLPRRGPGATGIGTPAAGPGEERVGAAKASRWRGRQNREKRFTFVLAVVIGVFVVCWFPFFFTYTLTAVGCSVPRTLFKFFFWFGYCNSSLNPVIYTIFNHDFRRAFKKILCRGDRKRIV
Protocol: as §1, §2, §3, §4

[1] = RSAT, transfected NIH-3T3 cells, value outside brackets, read-out: Alpha 2B EC50 (potency)
[2] = RSAT, transfected NIH-3T3 cells, value outside brackets, read-out: Alpha 2C EC50 (potency)
[3] = RSAT, transfected NIH-3T3 cells, value outside brackets, read-out: Alpha 2A EC50 (potency)

Structure (SMILES)	EC50 (alpha2B receptor; [1]) [nM]	Alpha 2B intrinsic activity (efficacy) (alpha2B receptor; RSAT)	EC50 (alpha2C receptor; [2]) [nM]	Alpha 2C intrinsic activity (efficacy) (alpha2C receptor; RSAT)	EC50 (alpha2A receptor; [3]) [µM]	Alpha 2A intrinsic activity (efficacy) (alpha2A receptor; RSAT)	EC50 (alpha2B receptor) [nM]	EC50 (alpha2C receptor) [nM]	EC50 (alpha2A receptor) [µM]
Fc1cccc(C(c2ccccn2)c2c[nH]cn2)c1 (stereo not drawn) [2-((3-fluorophenyl)(1H-imidazol-5-yl)methyl)pyridine]	273	0.64	> 10000	0.25	> 10	0.14	–	–	–
Fc1ccccc1C(c1ccccn1)c1c[nH]cn1 (stereo not drawn) [2-((2-fluorophenyl)(1H-imidazol-5-yl)methyl)pyridine]	993	0.56	2080	0.43	> 10	0.04	–	–	–
Fc1c(Cl)cccc1C(c1cccnc1)c1cnc[nH]1 (stereo not drawn) [3-((3-chloro-2-fluorophenyl)(1H-imidazol-5-yl)methyl)pyridine]	5.2	1.34	64	0.55	> 10	0.28	–	–	–
Fc1cccc(C(c2cccnc2)c2c[nH]cn2)c1Cl (stereo not drawn)	4.8	0.98	88	0.87	3.37	0.32	–	–	–
Clc1cccc(C(c2ccncc2)c2c[nH]cn2)c1Cl (stereo not drawn) [4-((2,3-dichlorophenyl)(1H-imidazol-5-yl)methyl)pyridine]	3.2	1.31	97	0.72	> 10	0.18	–	–	–
Fc1cccc(C(c2ccccn2)c2c[nH]cn2)c1F (stereo not drawn) [2-((2,3-difluorophenyl)(1H-imidazol-5-yl)methyl)pyridine]	405	1.08	> 10000	0.16	> 10	0.05	–	–	–
Fc1cccc(C(c2ccncc2)c2c[nH]cn2)c1F (stereo not drawn) [4-((2,3-difluorophenyl)(1H-imidazol-5-yl)methyl)pyridine]	837	0.70	2490	1.02	> 10	0.01	–	–	–
c1ccc(C(c2ccncc2)c2c[nH]cn2)cc1 (stereo not drawn) [4-((phenyl)(1H-imidazol-5-yl)methyl)pyridine]	309	0.69	> 10000	0.14	> 10	0.10	–	–	–
Cc1c(F)cccc1C(c1ccncc1)c1c[nH]cn1 (stereo not drawn) [4-((3-fluoro-2-methylphenyl)(1H-imidazol-5-yl)methyl)pyridine]	72	1.17	> 10000	0.27	> 10	0.03	–	–	–
c1ccc(C(c2ccccn2)c2c[nH]cn2)cc1 (stereo not drawn) [2-((phenyl)(1H-imidazol-5-yl)methyl)pyridine]	469	0.87	> 10000	0.09	> 10	0.04	–	–	–
Fc1c(Cl)cccc1C(c1ccncc1)c1cnc[nH]1 (stereo not drawn) [4-((3-chloro-2-fluorophenyl)(1H-imidazol-5-yl)methyl)pyridine]	40	1.02	340	0.60	> 10	0.09	–	–	–
Cc1ccccc1C(c1cccnc1)c1c[nH]cn1 (stereo not drawn) [3-((2-methylphenyl)(1H-imidazol-5-yl)methyl)pyridine]	259	0.61	> 10000	0.29	> 10	0.06	–	–	–
Fc1ccccc1C(c1cccnc1)c1c[nH]cn1 (stereo not drawn) [3-((2-fluorophenyl)(1H-imidazol-5-yl)methyl)pyridine]	–	0.60	–	0.55	–	0.7	251	2480	> 10
Fc1cccc(C(c2cccnc2)c2c[nH]cn2)c1F (stereo not drawn) [3-((2,3-difluorophenyl)(1H-imidazol-5-yl)methyl)pyridine]	68	0.93	656	0.85	> 10	0.05	–	–	–
Cc1cccc(C(c2ccncc2)c2c[nH]cn2)c1C (stereo not drawn) [4-((2,3-dimethylphenyl)(1H-imidazol-5-yl)methyl)pyridine]	4.4	1.07	605	0.49	1.51	0.32	–	–	–
